In patent US8440612B2, “Controlling giardiosis” (Bayer Intellectual Property GmbH, priority 2008, dated 2013):
“And” between values parts separate entries of the source, which are not always exact repeats. Equal entries are not always repeated.

Test system: Giardia duodenalis
Test: Giardia cyst excretion in infected Beagle puppies, oral dose on three successive days (Biological Example 2)
Assay type: in vivo
Description: Method: The quantitative determination of the cyst excretion was performed using a modified version of Hewlett (18): 4 g faeces were dissolved in 100 ml of water, sieved and allowed to sediment. The sediment was applied to a 1 M sucrose gradient (specific gravity 1.13), and the cysts, which were concentrated at the sucrose/water boundary layer after the centrifugation were pipetted off. After a wash step followed by centrifugation, the cysts in the pellet were counted. To this end, an aliquot of the pellet was counted under the microscope, and the number of cysts per g faeces was calculated.
Beagle puppies aged 11-15 weeks which had at least 2 weeks to settle in the animal centre before being infected were infected orally with 50 000 Giardia duodenalis cysts before the beginning of the study. The cysts for the infection were obtained with the aid of a sucrose gradient from the faeces of dogs which excreted Giardia cysts and stored at 4 degrees centigrade in Bacto-Casitone medium for no longer than 2 weeks. 18 puppies which excreted Giardia cysts were included in the study and kept in individual cages in order to collect the daily total faeces. The quantitative determination of the cyst excretion was performed as an […], with the modification that the aliquot of the pellet was counted under the microscope with the aid of a Fuchs-Rosenthal hematocytometer. The quantitative determination of the cyst excretion was performed for 4 days before the treatment (day −3 to 0), and the puppies were divided randomly into three groups, taking into consideration the cyst excretion. […] The 6 dogs of the control group remained untreated. The quantitative determination of the cyst excretion was continued from day 1 to day 8 after the treatment.

COC(=O)Nc1nc2ccc(Sc3ccccc3)cc2[nH]1 [fenbendazole]
Activity (calculated activity on cyst excretion versus infected untreated control, day 3 to 8, 50 mg/kg oral on days 0, 1 and 2, 50 mg/kg): 48.3%
Σ Giardia cyst excretion D0 (group line Σ (6 dogs), D0, day of treatment, 50 mg/kg oral on days D0, D1 and D2): 20274 cysts per g faeces
Σ Giardia cyst excretion D1 (group line Σ (6 dogs), D1, day of treatment, 50 mg/kg oral on days D0, D1 and D2): 17010 cysts per g faeces
Σ Giardia cyst excretion D2 (group line Σ (6 dogs), D2, day of treatment, 50 mg/kg oral on days D0, D1 and D2): 1735 cysts per g faeces
Σ Giardia cyst excretion D3 (group line Σ (6 dogs), D3, after the treatment, 50 mg/kg oral on days D0, D1 and D2): 13929 cysts per g faeces
Σ Giardia cyst excretion D4 (group line Σ (6 dogs), D4, after the treatment, 50 mg/kg oral on days D0, D1 and D2): 12781 cysts per g faeces
Σ Giardia cyst excretion D5 (group line Σ (6 dogs), D5, after the treatment, 50 mg/kg oral on days D0, D1 and D2): 7555 cysts per g faeces
Σ Giardia cyst excretion D6 (group line Σ (6 dogs), D6, after the treatment, 50 mg/kg oral on days D0, D1 and D2): 5494 cysts per g faeces
Σ Giardia cyst excretion D7 (group line Σ (6 dogs), D7, after the treatment, 50 mg/kg oral on days D0, D1 and D2): 12913 cysts per g faeces
Σ Giardia cyst excretion D8 (group line Σ (6 dogs), D8, after the treatment, 50 mg/kg oral on days D0, D1 and D2): 4795 cysts per g faeces
Σ Giardia cyst excretion D−1 (group line Σ (6 dogs), day −1, before treatment, 50 mg/kg oral on days D0, D1 and D2): 58990 cysts per g faeces
Σ Giardia cyst excretion D−2 (group line Σ (6 dogs), day −2, before treatment, 50 mg/kg oral on days D0, D1 and D2): 22257 cysts per g faeces
Σ Giardia cyst excretion D−3 (group line Σ (6 dogs), day −3, before treatment, 50 mg/kg oral on days D0, D1 and D2): 29963 cysts per g faeces
Σ Giardia cyst excretion Day 3 to 8 (group, after treatment, 50 mg/kg oral on days 0, 1 and 2): 9578 cysts per g faeces
Σ Giardia cyst excretion Day: −3 to 0 (group, before treatment, 50 mg/kg oral on days 0, 1 and 2): 32871 cysts per g faeces
Giardia cyst excretion D0 (individual dogs, D0, day of treatment, 50 mg/kg oral on days D0, D1 and D2, 50 mg/kg): 49400 cysts per g faeces and 28559 cysts per g faeces and 639 cysts per g faeces and 2719 cysts per g faeces and 17037 cysts per g faeces and 23290 cysts per g faeces
Giardia cyst excretion D1 (individual dogs, D1, day of treatment, 50 mg/kg oral on days D0, D1 and D2, 50 mg/kg): 67200 cysts per g faeces and 14596 cysts per g faeces and 872 cysts per g faeces and 12488 cysts per g faeces and 6178 cysts per g faeces and 723 cysts per g faeces
Giardia cyst excretion D2 (individual dogs, D2, day of treatment, 50 mg/kg oral on days D0, D1 and D2, 50 mg/kg): 0 cysts per g faeces (2×) and 5980 cysts per g faeces and 3386 cysts per g faeces and 490 cysts per g faeces and 552 cysts per g faeces
Giardia cyst excretion D3 (individual dogs, D3, after the treatment, 50 mg/kg oral on days D0, D1 and D2, 50 mg/kg): 67109 cysts per g faeces and 7043 cysts per g faeces and 961 cysts per g faeces and 3075 cysts per g faeces and 0 cysts per g faeces and 5388 cysts per g faeces
Giardia cyst excretion D4 (individual dogs, D4, after the treatment, 50 mg/kg oral on days D0, D1 and D2, 50 mg/kg): 49423 cysts per g faeces and 652 cysts per g faeces and 439 cysts per g faeces and 12038 cysts per g faeces and 0 cysts per g faeces and 14133 cysts per g faeces
Giardia cyst excretion D5 (individual dogs, D5, after the treatment, 50 mg/kg oral on days D0, D1 and D2, 50 mg/kg): 3116 cysts per g faeces and 18725 cysts per g faeces and 4432 cysts per g faeces and 0 cysts per g faeces (2×) and 19057 cysts per g faeces
Giardia cyst excretion D6 (individual dogs, D6, after the treatment, 50 mg/kg oral on days D0, D1 and D2, 50 mg/kg): 4635 cysts per g faeces and 7546 cysts per g faeces and 5594 cysts per g faeces and 3691 cysts per g faeces and 0 cysts per g faeces and 11495 cysts per g faeces
Giardia cyst excretion D7 (individual dogs, D7, after the treatment, 50 mg/kg oral on days D0, D1 and D2, 50 mg/kg): 17474 cysts per g faeces and 20780 cysts per g faeces and 260 cysts per g faeces and 18056 cysts per g faeces and 251 cysts per g faeces and 20657 cysts per g faeces
Giardia cyst excretion D8 (individual dogs, D8, after the treatment, 50 mg/kg oral on days D0, D1 and D2, 50 mg/kg): 0 cysts per g faeces (2×) and 5555 cysts per g faeces and 5968 cysts per g faeces and 10875 cysts per g faeces and 6370 cysts per g faeces
Giardia cyst excretion D−1 (individual dogs, day −1, before treatment, 50 mg/kg oral on days D0, D1 and D2, 50 mg/kg): 243143 cysts per g faeces and 56014 cysts per g faeces and 2349 cysts per g faeces and 16328 cysts per g faeces and 14744 cysts per g faeces and 21360 cysts per g faeces
Giardia cyst excretion D−2 (individual dogs, day −2, before treatment, 50 mg/kg oral on days D0, D1 and D2, 50 mg/kg): 47754 cysts per g faeces and 23808 cysts per g faeces and 26526 cysts per g faeces and 18113 cysts per g faeces and 7230 cysts per g faeces and 10109 cysts per g faeces
